Measurements from patent US9676756B2 (PORTOLA PHARMACEUTICALS, INC., priority 2012, dated 2017).
pIC50: −log10 of the molar value.

Columns and labels:
Type in all cases: biochemical
[1] = molecular target: T1, full length active recombinant SYK enzyme (Homo sapiens, UniProt P43405); experiment: SYK tyrosine phosphorylation activity, LANCE TR-FRET kinase assay; settings: 1 nM SYK, 100 μM ATP, 1 hour at room temperature
T1 construct: full length active recombinant SYK enzyme (Millipore, CA); purchased Millipore
Method: Potency of candidate molecules for inhibiting Syk tyrosine phosphorylation activity is assessed by measuring the ability of a test compound to inhibit Syk-mediated tyrosine phosphorylation of a Syk-specific substrate.
SYK tyrosine phosphorylation activity is measured using the LANCE™ Technology developed by Perkin Elmer Life and Analytical Sciences (Boston, Mass.). LANCE™ refers to homogeneous time resolved fluorometry applications using techniques such as time-resolved fluorescence resonance energy transfer assay (TR-FRET) (see generally for procedures in Perkin Elmer Application Note—How to Optimize a Tyrosine Kinase Assay Using Time Resolved Fluorescence-Based LANCE Detection, wwww.perkinelmer.com/lifesciences). The assay principle involves detection of a phosphorylated substrate using energy transfer from a phosphospecific europium-labeled antibody to streptavidin-allophycocyanin as an acceptor.
To test the ability of candidate molecules to inhibit SYK tyrosine phosphorylation activity, molecules are reconstituted in 30% DMSO and serially diluted 1:3 with the final dilution containing DMSO in the absence of the candidate molecule. The final DMSO concentration in the assay is 3%. Kinase assays are performed as a two part reaction. The first reaction is a kinase reaction that comprises a candidate molecule, full length active recombinant SYK enzyme (Millipore, CA) and biotin-labeled SYK-specific substrate biotin-[…]-OH. The second reaction involves termination of the kinase reaction and the simultaneous addition of the detection reagents-europium-labeled anti-phosphotyrosine reagent (Eu-W1024-PY100, Perkin Elmer, Boston, Mass.) and Streptavidin-Allophycocyanin detection reagent (SA-APC, Prozyme, CA). The kinase reaction is performed in a black U-bottom 96-well microtitre plate. The final reaction volume is 50 μL and contains a final concentration of 1 nM active SYK enzyme, 550 nM SYK-substrate, and 100 μM ATP diluted in a buffer containing 50 mM Tris pH 7.5, 5 mM MgCl2, and 1 mM DTT. The reaction is allowed to proceed for 1 hour at room temperature. The stop buffer contains 100 mM Tris pH 7.5, 300 mM NaCl2, 20 mM EDTA, 0.02% Brij35, and 0.5% BSA. The detection reagents are added to the reaction mixture at the following dilutions—1:500 for Eu-W1024-PY100 and 1:250 for SA-APC. The kinase reaction is terminated by the addition of 50 μL stop buffer containing the detection reagents. The detection is allowed to proceed for 1 hr at room temperature. Detection of the phosphorolated substrate in the absence and presence of inhibitors is measured in the TR-FRET instrument, Analyst HT (Molecular Probes, Sunnyvale, Calif.) and the condition for measurements are set up using CriterionHost Release 2.0 (Molecular Probes, Sunnyvale, Calif.). The settings used are a follows: excitation 360 nm, emission 665-7.5 nm, beam splitter 350 nm 50/50, flash 100 pulses, delay 60 us, integration 400 us, z-height 2 mm. Inhibition of SYK-tyrosine kinase activity is calculated as the maximum response observed in the presence of inhibitor, compared to that in the absence of inhibitor. IC50s are derived by non-linear regression analysis.

[2] = molecular target: T2, JAK2 (Homo sapiens, UniProt O60674); experiment: JAK tyrosine phosphorylation activity, Z'-LYTE FRET kinase assay; settings: catalytic domain recombinant kinase, Tyr6 peptide
T2 construct: 5 μl of catalytic domain recombinant Kinase enzyme+Tyr peptide substrate (Invitrogen, CA); purchased Invitrogen
Method: (§1) JAK and SYK tyrosine phosphorylation activity is measured using the Z'-LYTE™ Technology developed by Invitrogen Corporation (Carlsbad, Calif.). For JAK1, JAK2 and JAK3 the Z'-LYTE™ Kinase Assay Kit-Tyr6 Peptide (part number PV4122) was used. The Z'-LYTE™ biochemical assay employs a fluorescence resonance energy transfer (FRET) coupled-enzyme format and is based on the differential sensitivity of phosphorylated and non-phosphorylated peptides to proteolitic cleavage. The assay uses a synthetic peptide substrate that is labelled with a donor fluorophore (coumarin) and an acceptor fluorophore (fluorescein) that make up a FRET pair. In the primary reaction (the Kinase Reaction), the kinase transfers the γ-phosphate of ATP to a single tyrosine residue on the substrate, while the presence of a kinase inhibitor in the primary reaction suppresses phosphorylation. In the secondary reaction (the Development Reaction), a site-specific protease (the Development Reagent) is added. The development buffer quenches the Kinase Reaction, while the protease recognizes and cleaves non-phosphorylated Z'-LYTE™ peptide substrate. Cleavage disrupts FRET between the donor and acceptor fluorophores on the non-phosphorylated substrate, while uncleaved, phosphorylated substrate maintains FRET.
(§2) To test the ability of candidate molecules to inhibit JAK tyrosine phosphorylation activity, molecules are reconstituted in 100% DMSO and serially diluted 1:10 in polypropylene v-bottom microtiter plates. The candidate molecules are then diluted 1:25 into kinase buffer and 2.5 μl transferred into duplicate wells of a 384 well low volume black microtiter assay plate (Corning, USA). The final DMSO concentration in the assay is 1%. The kinase reaction contains 2.5 μl of a candidate molecule, 5 μl of catalytic domain recombinant Kinase enzyme+Tyr peptide substrate (Invitrogen, CA) and 2.5 μl ATP (Invitrogen, CA). The kinase reaction is allowed to precede for 1 hour at room temperature. The protease reaction is initiated by the addition of 5 μl Development Reagent (Invitrogen, CA). After 1 hour incubation at room temperature the fluorescence is measured using a FlexStation plate reader (Molecular Devices, Sunnyvale, Calif.). The reader settings used are as follows: Fluorescence mode, endpoint, top read, excitation 400 nm, emission 445 nm and 520 nm. Auto Cutoff 435 nm and 515 nm, PMT sensitivity high, 6 reads per well. Inhibition of JAK activity is calculated as the percent phosphorylation of substrate in the presence of inhibitor compared to the percent phosphorylation of substrate in the absence of inhibitor. IC50's were derived using Xlfit 4.3 (IDBS, UK), 4 parameter logistic model 205: Y=(A+((B−A)/(1+((C/x)^D)))).

[3] = molecular target: T3, JAK1 (Homo sapiens, UniProt P23458); experiment: as above; settings: catalytic domain recombinant kinase, Tyr6 peptide
T3 construct: 5 μl of catalytic domain recombinant Kinase enzyme+Tyr peptide substrate (Invitrogen, CA); purchased Invitrogen
Method: as §1, §2

[4] = molecular target: T4, JAK3 (Homo sapiens, UniProt P52333); experiment: as above; settings: catalytic domain recombinant kinase, Tyr6 peptide
T4 construct: 5 μl of catalytic domain recombinant Kinase enzyme+Tyr peptide substrate (Invitrogen, CA); purchased Invitrogen
Method: as §1, §2

T2 sequence (O60674 849-1124 limits assumed): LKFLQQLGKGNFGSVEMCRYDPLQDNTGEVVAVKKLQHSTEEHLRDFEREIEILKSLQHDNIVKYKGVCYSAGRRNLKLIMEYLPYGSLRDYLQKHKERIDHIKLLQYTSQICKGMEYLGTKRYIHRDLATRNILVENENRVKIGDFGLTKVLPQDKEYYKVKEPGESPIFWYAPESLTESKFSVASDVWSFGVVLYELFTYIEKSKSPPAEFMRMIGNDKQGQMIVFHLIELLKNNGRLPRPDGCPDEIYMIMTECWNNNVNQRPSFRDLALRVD
T3 sequence (P23458 875-1153 limits assumed): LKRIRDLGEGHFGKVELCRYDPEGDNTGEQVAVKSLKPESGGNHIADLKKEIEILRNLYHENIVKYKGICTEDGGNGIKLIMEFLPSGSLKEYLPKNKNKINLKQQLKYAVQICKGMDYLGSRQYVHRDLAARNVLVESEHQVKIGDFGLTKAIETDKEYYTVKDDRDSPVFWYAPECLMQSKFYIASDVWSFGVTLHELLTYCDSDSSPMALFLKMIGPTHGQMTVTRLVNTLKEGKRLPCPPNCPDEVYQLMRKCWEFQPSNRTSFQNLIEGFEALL
T4 sequence (P52333 822-1111 limits assumed): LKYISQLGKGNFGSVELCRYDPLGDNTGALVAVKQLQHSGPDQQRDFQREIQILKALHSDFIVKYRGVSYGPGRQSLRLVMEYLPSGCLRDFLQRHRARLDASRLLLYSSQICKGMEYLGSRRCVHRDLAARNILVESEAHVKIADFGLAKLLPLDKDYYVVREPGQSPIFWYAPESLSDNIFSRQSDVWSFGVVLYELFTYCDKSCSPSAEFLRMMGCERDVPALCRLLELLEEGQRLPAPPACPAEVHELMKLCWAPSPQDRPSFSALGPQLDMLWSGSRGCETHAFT

## NC(=O)c1cnc(Nc2ccc(C3CCN(C4CCCC4)CC3)cc2)nc1NC1CC1 [Compound 8, 2-((4-(1-cyclopentylpiperidin-4-yl)phenyl)amino)-4-(cyclopropylamino)pyrimidine-5-carboxamide]
[1]
  IC50: +++ (0.10 uM<IC50<0.01 uM)
[2]
  JAK2 IC50 potency class: ++++ (0.01 uM<IC50<0.001 uM)
[3]
  JAK1 IC50 potency class: +++ (0.10 uM<IC50<0.01 uM)
[4]
  JAK3 IC50 potency class: ++++ (0.01 uM<IC50<0.001 uM)

## CCS(=O)(=O)N1CCN(c2ccc(Nc3ncc(C(N)=O)c(NC4CC4)n3)cc2OC)CC1 [Compound 9, 4-(cyclopropylamino)-2-((4-(4-(ethylsulfonyl)piperazin-1-yl)-3-methoxyphenyl)amino)pyrimidine-5-carboxamide]
[1]
  IC50: +++ (0.10 uM<IC50<0.01 uM)
[2]
  JAK2 IC50 potency class: ++++ (0.01 uM<IC50<0.001 uM)
[3]
  JAK1 IC50 potency class: +++ (0.10 uM<IC50<0.01 uM)
[4]
  JAK3 IC50 potency class: ++++ (0.01 uM<IC50<0.001 uM)

## COC(=O)N1CCC(c2ccc(Nc3ncc(C(N)=O)c(NC4CC4)n3)cc2)CC1 [Compound 10, methyl 4-(4-((5-carbamoyl-4-(cyclopropylamino)pyrimidin-2-yl)amino)phenyl)piperidine-1-carboxylate]
[1]
  IC50: +++ (0.10 uM<IC50<0.01 uM)
[2]
  JAK2 IC50 potency class: +++ (0.10 uM<IC50<0.01 uM)
[3]
  JAK1 IC50 potency class: +++ (0.10 uM<IC50<0.01 uM)
[4]
  JAK3 IC50 potency class: ++++ (0.01 uM<IC50<0.001 uM)

## CCOC(=O)N1CCC(c2ccc(Nc3ncc(C(N)=O)c(NC4CC4)n3)cc2)CC1 [Compound 11, ethyl 4-(4-((5-carbamoyl-4-(cyclopropylamino)pyrimidin-2-yl)amino)phenyl)piperidine-1-carboxylate]
[1]
  IC50: +++ (0.10 uM<IC50<0.01 uM)
[2]
  JAK2 IC50 potency class: +++ (0.10 uM<IC50<0.01 uM)
[3]
  JAK1 IC50 potency class: ++ (1.0 uM<IC50<0.10 uM)
[4]
  JAK3 IC50 potency class: +++ (0.10 uM<IC50<0.01 uM)

## CN(C)S(=O)(=O)N1CCC(c2ccc(Nc3ncc(C(N)=O)c(NC4CC4)n3)cc2)CC1 [Compound 12, 4-(cyclopropylamino)-2-((4-(1-(N,N-dimethylsulfamoyl)piperidin-4-yl)phenyl)amino)pyrimidine-5-carboxamide]
[1]
  IC50: ++ (1.0 uM<IC50<0.10 uM)
[2]
  JAK2 IC50 potency class: +++ (0.10 uM<IC50<0.01 uM)
[3]
  JAK1 IC50 potency class: +++ (0.10 uM<IC50<0.01 uM)
[4]
  JAK3 IC50 potency class: ++++ (0.01 uM<IC50<0.001 uM)

## NC(=O)c1cnc(Nc2ccc(C3CCN(C(=O)N4CCCC4)CC3)cc2)nc1NC1CC1 [Compound 13, 4-(cyclopropylamino)-2-((4-(1-(pyrrolidine-1-carbonyl)piperidin-4-yl)phenyl)amino)pyrimidine-5-carboxamide]
[1]
  IC50: ++ (1.0 uM<IC50<0.10 uM)
[2]
  JAK2 IC50 potency class: +++ (0.10 uM<IC50<0.01 uM)
[3]
  JAK1 IC50 potency class: +++ (0.10 uM<IC50<0.01 uM)
[4]
  JAK3 IC50 potency class: ++++ (0.01 uM<IC50<0.001 uM)

## NC(=O)c1cnc(Nc2ccc(C3CCN(C4CCOCC4)CC3)cc2)nc1NC1CC1 [Compound 14, 4-(cyclopropylamino)-2-((4-(1-(tetrahydro-2H-pyran-4-yl)piperidin-4-yl)phenyl)amino)pyrimidine-5-carboxamide]
[1]
  IC50: +++ (0.10 uM<IC50<0.01 uM)
[2]
  JAK2 IC50 potency class: ++++ (0.01 uM<IC50<0.001 uM)
[3]
  JAK1 IC50 potency class: +++ (0.10 uM<IC50<0.01 uM)
[4]
  JAK3 IC50 potency class: ++++ (0.01 uM<IC50<0.001 uM)

## CCN1CCC(c2ccc(Nc3ncc(C(N)=O)c(NC4CC4)n3)cc2)CC1 [Compound 15, 4-(cyclopropylamino)-2-((4-(1-ethylpiperidin-4-yl)phenyl)amino)pyrimidine-5-carboxamide]
[1]
  IC50: +++ (0.10 uM<IC50<0.01 uM)
[2]
  JAK2 IC50 potency class: ++++ (0.01 uM<IC50<0.001 uM)
[3]
  JAK1 IC50 potency class: +++ (0.10 uM<IC50<0.01 uM)
[4]
  JAK3 IC50 potency class: ++++ (0.01 uM<IC50<0.001 uM)

## NC(=O)c1cnc(Nc2ccc(C3CCN(c4ccccc4)CC3)cc2)nc1NC1CC1 [Compound 16, 4-(cyclopropylamino)-2-((4-(1-phenylpiperidin-4-yl)phenyl)amino)pyrimidine-5-carboxamide]
[1]
  IC50: ++ (1.0 uM<IC50<0.10 uM)
[2]
  JAK2 IC50 potency class: ++ (1.0 uM<IC50<0.10 uM)
[3]; read-out: JAK1 IC50 % Inhibition
  pIC50: < 6.00
[4]
  JAK3 IC50 potency class: +++ (0.10 uM<IC50<0.01 uM)

## NC(=O)c1cnc(Nc2ccc(C3CCN(c4cccnc4)CC3)cc2)nc1NC1CC1 [Compound 17, 4-(cyclopropylamino)-2-((4-(1-(pyridin-3-yl)piperidin-4-yl)phenyl)amino)pyrimidine-5-carboxamide]
[1]
  IC50: ++ (1.0 uM<IC50<0.10 uM)
[2]
  JAK2 IC50 potency class: +++ (0.10 uM<IC50<0.01 uM)
[3]
  JAK1 IC50 potency class: +++ (0.10 uM<IC50<0.01 uM)
[4]
  JAK3 IC50 potency class: +++ (0.10 uM<IC50<0.01 uM)

## N#CCC(=O)N1CCC(c2ccc(Nc3ncc(C(N)=O)c(NC4CC4)n3)cc2)CC1 [Compound 25, 2-((4-(1-(2-cyanoacetyl)piperidin-4-yl)phenyl)amino)-4-(cyclopropylamino)pyrimidine-5-carboxamide]
[1]
  IC50: +++ (0.10 uM<IC50<0.01 uM)
[2]
  JAK2 IC50 potency class: ++++ (0.01 uM<IC50<0.001 uM)
[3]
  JAK1 IC50 potency class: +++ (0.10 uM<IC50<0.01 uM)
[4]
  JAK3 IC50 potency class: ++++ (0.01 uM<IC50<0.001 uM)
